Laboratory results reported in a compilation of properties of binary mixtures (doi:10.1016/j.jct.2019.106017).

Assay: xn = mol fraction of the nth substance listed
Conditions: 99.7 kPa

`CCCCCCCCn1cc[n+](C)c1.F[B-](F)(F)F` + CC1COC(=O)O1 showed a viscosity (303.15 K, x2 = 0.7343) of 5.22 mPa·s, a viscosity (303.15 K, x2 = 0.917) of 2.84 mPa·s and a viscosity (313.15 K, x2 = 0.4086) of 26.1 mPa·s. For the same compound, the viscosity (313.15 K, x2 = 0.7343) was 5.01 mPa·s, the viscosity (313.15 K, x2 = 0.917) was 2.61 mPa·s and the viscosity (323.15 K, x2 = 0.4086) was 18.1 mPa·s. It also gave a viscosity (323.15 K, x2 = 0.7343) of 4.81 mPa·s, a viscosity (323.15 K, x2 = 0.917) of 2.36 mPa·s and a viscosity (333.15 K, x2 = 0.4086) of 12.9 mPa·s. The viscosity (333.15 K, x2 = 0.7343) was 4.62 mPa·s and the viscosity (333.15 K, x2 = 0.917) was 2.16 mPa·s.

In the case of `CC1COC(=O)O1` (centres undefined) + CCCCCCCCn1cc[n+](C)c1.F[B-](F)(F)F, the viscosity (303.15 K, x1 = 1) is reported as 2.21 mPa·s, the viscosity (313.15 K, x1 = 1) is reported as 2 mPa·s and the viscosity (333.15 K, x1 = 1) is reported as 1.6 mPa·s.
